One may read the pIC50 as the negative decadic logarithm of the IC50, by convention in mol/L. A low value points to a high IC50.

SMILES strings stand for the structures. pIC50: −log10 of the molar value. Where a name gives a salt, the structure may show the parent alone.

The record followed here is patent US10358437B2, “Therapeutic compounds and uses thereof” (GENENTECH, INC., priority 2014, dated 2019).

The test addresses T1, PCAF bromodomain (Homo sapiens, UniProt Q92831).
T1 construct: Flag; made in house
T1 sequence (Q92831 719-832): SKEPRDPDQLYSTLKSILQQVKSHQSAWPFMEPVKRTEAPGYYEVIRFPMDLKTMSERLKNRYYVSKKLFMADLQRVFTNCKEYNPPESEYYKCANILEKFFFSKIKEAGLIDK
In words: PCAF AlphaLisa binding assay. The following applies: His/Flag tagged PCAF719-832 bromodomain 225 nM, biotinylated small molecule ligand 6 nM. As for the experimental part: IC50 Measurements for Inhibitors Using PCAF AlphaLisa Binding Assay
His/Flag epitope tagged PCAF719-832 bromodomain was cloned, expressed and purified to homogeneity in-house. PCAF bromodomain binding and inhibition of the compounds disclosed herein was assessed by monitoring the engagement of biotinylated small molecule ligand (known to bind to the PCAF bromodomain) with the target using the AlphaLisa technology (Perkin-Elmer). Specifically, in a 384 well ProxiPlate PCAF bromodomain (225 nM final) was combined with the biotinylated small molecule ligand (6 nM final) in 50 mM HEPES (pH 7.5), 75 mM NaCl, 1 mM TCEP, 0.01% (w/v) BSA, and 0.008% (w/v) Brij-35 either in the presence of DMSO (final 0.2% DMSO) or compound dilution series in DMSO. After 15 minute incubation at room temperature AlphaLisa streptavidin acceptor beads and AlphaLisa anti-histidine donor beads were added to a final concentration of 12.5 μg/mL each.
PCAF IC50 values for the Examples 1-22 were determined using the general procedure described above.
Background: In Alpha technology, singlet oxygen from a donor bead excites a nearby acceptor bead.

`CN1c2ccccc2CCC1CNc1nn(C)c(=O)n(C)c1=O` (racemic) [Example 2, 2,4-dimethyl-6-(((1-methyl-1,2,3,4-tetrahydroquinolin-2-yl)methyl)amino)-1,2,4-triazine-3,5(2H,4H)-dione]: the pIC50 is < 4.70.
For `CN1CCCC1CNc1nn(C)c(=O)n(C)c1=O` (racemic) [Example 3, 2,4-dimethyl-6-(((1-methylpyrrolidin-2-yl)methyl)amino)-1,2,4-triazine-3,5(2H,4H)-dione] the value was 5.60.
For `CN(C)C(CNc1nn(C)c(=O)n(C)c1=O)c1ccc(F)cc1` (racemic) [Example 4, 6-((2-(dimethylamino)-2-(4-fluorophenyl)ethyl)amino)-2,4-dimethyl-1,2,4-triazine-3,5(2H,4H)-dione] the value was 6.55; for `COc1ccc(C(CNc2nn(C)c(=O)n(C)c2=O)N(C)C)cc1` (racemic) [Example 6, 6-((2-(dimethylamino)-2-(4-methoxyphenyl)ethyl)amino)-2,4-dimethyl-1,2,4-triazine-3,5(2H,4H)-dione], 6.82; for `CN1Cc2ccccc2CC1CNc1nn(C)c(=O)n(C)c1=O` (racemic) [Example 8, 2,4-dimethyl-6-[(2-methyl-3,4-dihydro-1H-isoquinolin-3-yl)methylamino]-1,2,4-triazine-3,5-dione], 6.42.
`CN(C)C(CNc1nn(C)c(=O)n(C)c1=O)c1cccc(Cl)c1` (racemic) [Example 10, 6-((2-(3-chlorophenyl)-2-(dimethylamino)ethyl)amino)-2,4-dimethyl-1,2,4-triazine-3,5(2H,4H)-dione] gave a pIC50 of 6.37.
With `CN(C)C(CNc1nn(C)c(=O)n(C)c1=O)Cc1ccccc1` (racemic) [Example 11, 6-((2-(dimethylamino)-3-phenylpropyl)amino)-2,4-dimethyl-1,2,4-triazine-3,5(2H,4H)-dione], the negative-log IC50 (pIC50) is 5.85.
For `CN(C)C1CCCN(c2nn(C)c(=O)n(C)c2=O)C1` (racemic) [Example 12, 6-(3-(dimethylamino)piperidin-1-yl)-2,4-dimethyl-1,2,4-triazine-3,5(2H,4H)-dione] the value was < 4.70.
For `Cn1nc(N2CCNC(c3ccccc3)C2)c(=O)n(C)c1=O` (racemic) [Example 13, 2,4-dimethyl-6-(3-phenylpiperazin-1-yl)-1,2,4-triazine-3,5(2H,4H)-dione] the value was < 4.70; for `CN(C)C(CNc1nn(C)c(=O)n(C)c1=O)c1ccc(C(F)(F)F)cc1` (racemic) [Example 14, 6-((2-(dimethylamino)-2-(4-(trifluoromethyl)phenyl)ethyl)amino)-2,4-dimethyl-1,2,4-triazine-3,5(2H,4H)-dione], 6.60; for `CN(C)C(C)(CNc1nn(C)c(=O)n(C)c1=O)c1ccccc1` (racemic) [Example 15, 6-((2-(dimethylamino)-2-phenylpropyl)amino)-2,4-dimethyl-1,2,4-triazine-3,5(2H,4H)-dione], 6.32.
In turn, `Cn1nc(NCC(c2ccccc2)N2CCCC2)c(=O)n(C)c1=O` (racemic) [Example 16, 2,4-dimethyl-6-((2-phenyl-2-(pyrrolidin-1-yl)ethyl)amino)-1,2,4-triazine-3,5(2H,4H)-dione] showed a negative logarithm of the IC50 (pIC50) of 5.09.
In the case of `CN(C)[C@H]1CCCC[C@H]1Nc1nn(C)c(=O)n(C)c1=O` (racemic) [Example 19, 6-((2-(dimethylamino)cyclohexyl)amino)-2,4-dimethyl-1,2,4-triazine-3,5(2H,4H)-dione hydrochloride], the pIC50 was 5.96.
For `CN(C)[C@@H]1CCCC[C@H]1Nc1nn(C)c(=O)n(C)c1=O` (racemic) [Example 20, 6-(((1R,2R)-2-(dimethylamino)cyclohexyl)amino)-2,4-dimethyl-1,2,4-triazine-3,5(2H,4H)-dione] the value was 6.64.
`CN1CCc2ccccc2C1CNc1nn(C)c(=O)n(C)c1=O` (racemic) [Example 21, 2,4-dimethyl-6-(((2-methyl-1,2,3,4-tetrahydroisoquinolin-1-yl)methyl)amino)-1,2,4-triazine-3,5(2H,4H)-dione] gave a pIC50 of 5.92.
The compound `CCn1nc(NCC(c2ccccc2)N(C)C)c(=O)n(CC)c1=O` (racemic) [Example 22, 6-((2-(dimethylamino)-2-phenylethyl)amino)-2,4-diethyl-1,2,4-triazine-3,5(2H,4H)-dione] had a pIC50 of 4.92.
For `C[C@H](Nc1nn(C)c(=O)n(C)c1=O)[C@H](c1ccccc1)N(C)C` (single isomer, unassigned) [Example 17] the value was 6.92.
Take `C[C@H](Nc1nn(C)c(=O)n(C)c1=O)[C@H](c1ccc(S(=O)(=O)c2ccccc2)cc1)N(C)C` (single isomer, unassigned) [Example 18]: the pIC50 was 7.15.
As to `CN(CCNc1nn(C)c(=O)n(C)c1=O)CC(F)(F)F` [Example 1, 2,4-dimethyl-6-((2-(methyl(2,2,2-trifluoroethyl)amino)ethyl)amino)-1,2,4-triazine-3,5(2H,4H)-dione], the pIC50 was < 4.70.
In the case of `Cn1nc(NCCNc2ccccc2)c(=O)n(C)c1=O` [Example 5, 2,4-dimethyl-6-((2-(phenylamino)ethyl)amino)-1,2,4-triazine-3,5(2H,4H)-dione], the negative logarithm of the IC50 (pIC50) was 4.19.
For `CN(C)CCN(C)c1nn(C)c(=O)n(C)c1=O` [Example 7, 6-((2-(dimethylamino)ethyl)(methyl)amino)-2,4-dimethyl-1,2,4-triazine-3,5(2H,4H)-dione (trifluoroacetic acid salt)] the value was 4.43; for `CN(CCNc1nn(C)c(=O)n(C)c1=O)Cc1ccccc1` [Example 9, 6-((2-(benzyl(methyl)amino)ethyl)amino)-2,4-dimethyl-1,2,4-triazine-3,5(2H,4H)-dione], 5.12.
